Reference: ChEMBL document CHEMBL4229379, “Synthesis and structure-activity relationship of novel bisindole amidines active against MDR Gram-positive and Gram-negative bacteria” (Eur J Med Chem, 2018)
In brackets after ≈: the same amount, converted by molar mass.

What was measured:
Staphylococcus aureus [1] = assay: Antibacterial activity against methicillin-sensitive Staphylococcus aureus 12-28 after 18 hrs by CLSI broth microdilution method; assay type: functional; settings: 12-28, 18 h
Enterococcus faecium [2] = assay: Antibacterial activity against vancomycin-resistant Enterococcus faecium 12-1 after 18 hrs by CLSI broth microdilution method; assay type: functional; settings: 12-1, 18 h
Klebsiella pneumoniae [3] = assay: Antibacterial activity against extended-spectrum beta-lactamase deficient Klebsiella pneumoniae 12-4 after 18 hrs by CLSI broth microdilution method; assay type: functional; settings: 12-4, 18 h
Proteus mirabilis = assay: Antibacterial activity against Proteus mirabilis 12-6 after 18 hrs by CLSI broth microdilution method; assay type: functional; settings: 12-6, 18 h
[4] = tested on: Stenotrophomonas maltophilia; assay: Antibacterial activity against Stenotrophomonas maltophilia ATCC 13636 after 18 hrs by CLSI broth microdilution method; assay type: functional; settings: ATCC 13636, 18 h
Klebsiella pneumoniae [5] = assay: Antibacterial activity against extended-spectrum beta-lactamase deficient Klebsiella pneumoniae 7 after 18 hrs by CLSI broth microdilution method; assay type: functional; settings: Klebsiella pneumoniae, 7, 18 h
[6] = Cytotoxicity against HEK293T cells assessed as reduction in cell viability after 48 hrs by MTS assay; assay type: cell-based, HEK-293T; settings: human
[7] = tested on: Staphylococcus epidermidis; assay: Antibacterial activity against methicillin-resistant Staphylococcus epidermidis 12-8 after 18 hrs by CLSI broth microdilution method; assay type: functional; settings: 12-8, 18 h
Escherichia coli [8] = assay: Antibacterial activity against extended-spectrum beta-lactamase deficient Escherichia coli ATCC 25922 after 18 hrs by CLSI broth microdilution method; assay type: functional; settings: ATCC 25922, 18 h
Klebsiella pneumoniae [9] = assay: Antibacterial activity against new delhi metallo-beta-lactamase-1 harboring Klebsiella pneumoniae ATCC BAA-2146 after 18 hrs by CLSI broth microdilution method; assay type: functional; settings: ATCC BAA-2146, 18 h
Klebsiella pneumoniae [10] = assay: Antibacterial activity against extended-spectrum beta-lactamase harboring Klebsiella pneumoniae ATCC 700603 after 18 hrs by CLSI broth microdilution method; assay type: functional; settings: Klebsiella pneumoniae, 700603, 18 h
Enterobacter cloacae = assay: Antibacterial activity against Enterobacter cloacae ATCC 43560 after 18 hrs by CLSI broth microdilution method; assay type: functional; settings: ATCC 43560, 18 h
Providencia rettgeri = assay: Antibacterial activity against Providencia rettgeri ATCC 31052 after 18 hrs by CLSI broth microdilution method; assay type: functional; settings: ATCC 31052, 18 h
Enterococcus faecalis [11] = assay: Antibacterial activity against vancomycin-resistant Enterococcus faecalis ATCC 51299 after 18 hrs by CLSI broth microdilution method; assay type: functional; settings: ATCC 51299, 18 h
Staphylococcus aureus [12] = assay: Antibacterial activity against methicillin-sensitive Staphylococcus aureus 15 after 18 hrs by CLSI broth microdilution method; assay type: functional; settings: Staphylococcus aureus, 15, 18 h
Klebsiella pneumoniae [13] = assay: Antibacterial activity against extended-spectrum beta-lactamase harboring Klebsiella pneumoniae 12-8 after 18 hrs by CLSI broth microdilution method; assay type: functional; settings: 12-8, 18 h
Enterococcus faecalis [14] = assay: Antibacterial activity against vancomycin-resistant Enterococcus faecalis 09-9 after 18 hrs by CLSI broth microdilution method; assay type: functional; settings: 09-9, 18 h
[15] = tested on: Staphylococcus epidermidis; assay: Antibacterial activity against methicillin-sensitive Staphylococcus epidermidis ATCC 12228 after 18 hrs by CLSI broth microdilution method; assay type: functional; settings: ATCC 12228, 18 h
Escherichia coli [16] = assay: Antibacterial activity against extended-spectrum beta-lactamase deficient Escherichia coli 1515 after 18 hrs by CLSI broth microdilution method; assay type: functional; settings: Escherichia coli, 1515, 18 h
Serratia marcescens = assay: Antibacterial activity against Serratia marcescens ATCC 21074 after 18 hrs by CLSI broth microdilution method; assay type: functional; settings: ATCC 21074, 18 h
Staphylococcus aureus [17] = assay: Antibacterial activity against methicillin-resistant Staphylococcus aureus ATCC 33591 after 18 hrs by CLSI broth microdilution method; assay type: functional; settings: ATCC 33591, 18 h
Enterococcus faecium [18] = assay: Antibacterial activity against vancomycin-resistant Enterococcus faecium ATCC 700221 after 18 hrs by CLSI broth microdilution method; assay type: functional; settings: ATCC 700221, 18 h
Pseudomonas aeruginosa [19] = assay: Antibacterial activity against Pseudomonas aeruginosa ATCC 27853 after 18 hrs by CLSI broth microdilution method; assay type: functional; settings: ATCC 27853, 18 h
Enterococcus faecalis [20] = assay: Antibacterial activity against vancomycin-sensitive Enterococcus faecalis ATCC 29212 after 18 hrs by CLSI broth microdilution method; assay type: functional; settings: ATCC 29212, 18 h
Pseudomonas aeruginosa [21] = assay: Antibacterial activity against Pseudomonas aeruginosa 12-16 after 18 hrs by CLSI broth microdilution method; assay type: functional; settings: 12-16, 18 h
Escherichia coli [22] = assay: Antibacterial activity against extended-spectrum beta-lactamase deficient Escherichia coli 12-14 after 18 hrs by CLSI broth microdilution method; assay type: functional; settings: 12-14, 18 h
Staphylococcus aureus [23] = assay: Antibacterial activity against methicillin-resistant Staphylococcus aureus 12-33 after 18 hrs by CLSI broth microdilution method; assay type: functional; settings: 12-33, 18 h
[24] = tested on: Acinetobacter calcoaceticus; assay: Antibacterial activity against Acinetobacter calcoaceticus ATCC 19606 after 18 hrs by CLSI broth microdilution method; assay type: functional; settings: ATCC 19606, 18 h
Enterococcus faecalis [25] = assay: Antibacterial activity against vancomycin-sensitive Enterococcus faecalis 12-5 after 18 hrs by CLSI broth microdilution method; assay type: functional; settings: 12-5, 18 h
Citrobacter freundii = assay: Antibacterial activity against Citrobacter freundii ATCC 43864 after 18 hrs by CLSI broth microdilution method; assay type: functional; settings: ATCC 43864, 18 h
Enterococcus faecium [26] = assay: Antibacterial activity against vancomycin-sensitive Enterococcus faecium 12-3 after 18 hrs by CLSI broth microdilution method; assay type: functional; settings: 12-3, 18 h
Escherichia coli [27] = assay: Antibacterial activity against extended-spectrum beta-lactamase harboring Escherichia coli 12-15 after 18 hrs by CLSI broth microdilution method; assay type: functional; settings: 12-15, 18 h
Proteus vulgaris = assay: Antibacterial activity against Proteus vulgaris ATCC 29905 after 18 hrs by CLSI broth microdilution method; assay type: functional; settings: ATCC 29905, 18 h
Klebsiella aerogenes = assay: Antibacterial activity against Enterobacter aerogenes ATCC 13048 after 18 hrs by CLSI broth microdilution method; assay type: functional; settings: ATCC 13048, 18 h
[28] = tested on: Staphylococcus epidermidis; assay: Antibacterial activity against methicillin-sensitive Staphylococcus epidermidis 12-6 after 18 hrs by CLSI broth microdilution method; assay type: functional; settings: 12-6, 18 h
Staphylococcus aureus [29] = assay: Antibacterial activity against methicillin-sensitive Staphylococcus aureus ATCC 29213 after 18 hrs by CLSI broth microdilution method; assay type: functional; settings: ATCC 29213, 18 h
Pseudomonas aeruginosa [30] = assay: Antibacterial activity against Pseudomonas aeruginosa PAO1 after 18 hrs by CLSI broth microdilution method; assay type: functional; settings: PAO1, 18 h

Row | SMILES | MIC (Staphylococcus aureus [1]) | MIC (Enterococcus faecium [2]) | MIC (Klebsiella pneumoniae [3]) | MIC (Proteus mirabilis) | MIC [4] | MIC (Klebsiella pneumoniae [5]) | CC50 at 48 h [6] | MIC [7] | MIC (Escherichia coli [8]) | MIC (Klebsiella pneumoniae [9]) | MIC (Klebsiella pneumoniae [10]) | MIC (Enterobacter cloacae) | MIC (Providencia rettgeri) | MIC (Enterococcus faecalis [11]) | MIC (Staphylococcus aureus [12]) | MIC (Klebsiella pneumoniae [13]) | MIC (Enterococcus faecalis [14]) | MIC [15] | MIC (Escherichia coli [16]) | MIC (Serratia marcescens) | other results
1 | CN(C)C(=N)c1ccc2cc(-c3cncc(-c4cc5ccc(C(=N)N(C)C)cc5[nH]4)c3)[nH]c2c1 | 0.5 mg/L (≈ 1.11 µM) | 1 mg/L (≈ 2.22 µM) | 8 mg/L (≈ 17.8 µM) | 8 mg/L (≈ 17.8 µM) | 8 mg/L (≈ 17.8 µM) | 4 mg/L (≈ 8.9 µM) | 1.75 mg/L (≈ 3.89 µM) | 0.5 mg/L (≈ 1.11 µM) | 2 mg/L (≈ 4.45 µM) | 4 mg/L (≈ 8.9 µM) | 8 mg/L (≈ 17.8 µM) | 4 mg/L (≈ 8.9 µM) | 2 mg/L (≈ 4.45 µM) | 2 mg/L (≈ 4.45 µM) | 0.5 mg/L (≈ 1.11 µM) | 4 mg/L (≈ 8.9 µM) | 2 mg/L (≈ 4.45 µM) | 0.25 mg/L (≈ 0.556 µM) | 2 mg/L (≈ 4.45 µM) | 16 mg/L (≈ 35.6 µM) | MIC (Staphylococcus aureus [17]): 0.5 mg/L (≈ 1.11 µM); MIC (Enterococcus faecium [18]): 2 mg/L (≈ 4.45 µM); MIC (Pseudomonas aeruginosa [19]): 16 mg/L (≈ 35.6 µM); MIC (Enterococcus faecalis [20]): 2 mg/L (≈ 4.45 µM); MIC (Pseudomonas aeruginosa [21]): > 64 mg/L; MIC (Escherichia coli [22]): 1 mg/L (≈ 2.22 µM); MIC (Staphylococcus aureus [23]): 0.5 mg/L (≈ 1.11 µM); MIC [24]: 8 mg/L (≈ 17.8 µM); MIC (Enterococcus faecalis [25]): 2 mg/L (≈ 4.45 µM); MIC (Citrobacter freundii): 8 mg/L (≈ 17.8 µM); MIC (Enterococcus faecium [26]): 2 mg/L (≈ 4.45 µM); MIC (Escherichia coli [27]): 1 mg/L (≈ 2.22 µM); MIC (Proteus vulgaris): 4 mg/L (≈ 8.9 µM); MIC (Klebsiella aerogenes): 4 mg/L (≈ 8.9 µM); MIC [28]: 0.25 mg/L (≈ 0.556 µM); MIC (Staphylococcus aureus [29]): 0.5 mg/L (≈ 1.11 µM); MIC (Pseudomonas aeruginosa [30]): > 64 mg/L
2 | CN(C)C(=N)c1ccc2cc(-c3ccc4ccc(-c5cc6ccc(C(=N)N(C)C)cc6[nH]5)cc4c3)[nH]c2c1 | 4 mg/L (≈ 8.02 µM) | 16 mg/L (≈ 32.1 µM) | > 128 mg/L | > 128 mg/L | > 128 mg/L | > 128 mg/L | 13.6 mg/L (≈ 27.4 µM) | 4 mg/L (≈ 8.02 µM) | > 128 mg/L | > 128 mg/L | > 128 mg/L | > 128 mg/L | > 128 mg/L | 128 mg/L (≈ 257 µM) | 4 mg/L (≈ 8.02 µM) | > 128 mg/L | 128 mg/L (≈ 257 µM) | 4 mg/L (≈ 8.02 µM) | > 128 mg/L | > 128 mg/L | MIC (Staphylococcus aureus [17]): 4 mg/L (≈ 8.02 µM); MIC (Enterococcus faecium [18]): 128 mg/L (≈ 257 µM); MIC (Pseudomonas aeruginosa [19]): > 128 mg/L; MIC (Enterococcus faecalis [20]): 128 mg/L (≈ 257 µM); MIC (Pseudomonas aeruginosa [21]): > 128 mg/L; MIC (Escherichia coli [22]): > 128 mg/L; MIC (Staphylococcus aureus [23]): 8 mg/L (≈ 16 µM); MIC [24]: > 128 mg/L; MIC (Enterococcus faecalis [25]): 128 mg/L (≈ 257 µM); MIC (Citrobacter freundii): > 128 mg/L; MIC (Enterococcus faecium [26]): 32 mg/L (≈ 64.2 µM); MIC (Escherichia coli [27]): > 128 mg/L; MIC (Proteus vulgaris): > 128 mg/L; MIC (Klebsiella aerogenes): > 128 mg/L; MIC [28]: 64 mg/L (≈ 128 µM); MIC (Staphylococcus aureus [29]): 4 mg/L (≈ 8.02 µM); MIC (Pseudomonas aeruginosa [30]): > 128 mg/L
3 | CN(C)C(=N)c1ccc2cc(-c3ccc4cc(-c5cc6ccc(C(=N)N(C)C)cc6[nH]5)ccc4c3)[nH]c2c1 | 2 mg/L (≈ 4.01 µM) | 32 mg/L (≈ 64.2 µM) | > 128 mg/L | > 128 mg/L | 32 mg/L (≈ 64.2 µM) | > 128 mg/L | 6.2 mg/L (≈ 12.4 µM) | 1 mg/L (≈ 2.01 µM) | 32 mg/L (≈ 64.2 µM) | > 128 mg/L | > 128 mg/L | 64 mg/L (≈ 128 µM) | 128 mg/L (≈ 257 µM) | 32 mg/L (≈ 64.2 µM) | 2 mg/L (≈ 4.01 µM) | 128 mg/L (≈ 257 µM) | 4 mg/L (≈ 8.02 µM) | 2 mg/L (≈ 4.01 µM) | 32 mg/L (≈ 64.2 µM) | > 128 mg/L | MIC (Staphylococcus aureus [17]): 2 mg/L (≈ 4.01 µM); MIC (Enterococcus faecium [18]): 32 mg/L (≈ 64.2 µM); MIC (Pseudomonas aeruginosa [19]): > 128 mg/L; MIC (Enterococcus faecalis [20]): 32 mg/L (≈ 64.2 µM); MIC (Pseudomonas aeruginosa [21]): > 128 mg/L; MIC (Escherichia coli [22]): 32 mg/L (≈ 64.2 µM); MIC (Staphylococcus aureus [23]): 2 mg/L (≈ 4.01 µM); MIC [24]: 128 mg/L (≈ 257 µM); MIC (Enterococcus faecalis [25]): 32 mg/L (≈ 64.2 µM); MIC (Citrobacter freundii): 32 mg/L (≈ 64.2 µM); MIC (Enterococcus faecium [26]): 16 mg/L (≈ 32.1 µM); MIC (Escherichia coli [27]): 64 mg/L (≈ 128 µM); MIC (Proteus vulgaris): 64 mg/L (≈ 128 µM); MIC (Klebsiella aerogenes): > 128 mg/L; MIC [28]: 32 mg/L (≈ 64.2 µM); MIC (Staphylococcus aureus [29]): 2 mg/L (≈ 4.01 µM); MIC (Pseudomonas aeruginosa [30]): > 128 mg/L
